Measurements: publication PMC6345745, “Discovery of novel hit compounds with broad activity against visceral and cutaneous Leishmania species by comparative phenotypic screening” (Scientific Reports, 2019)

Tests used:
[1] = system: intracellular L. donovani amastigotes (strain Ld1S); experiment: High content assay on intramacrophagic L. donovani amastigotes in primary mouse macrophages; assay type: cell-based, Leishmania donovani; conditions: for SI (selectivity index): EC50 (BMDM) versus EC50 (L. donovani Am); for EC50: Leishmania donovani, BMDM, 72 h, read-out: EC50 (L. donovani Am)
Method: (§1) Bone marrow derived macrophages (BMDMs) at day 6 of differentiation were resuspended in complete medium supplemented with CSF-1 (25 ng/ml) and deposited in 384 well plates (culture-treated, flat-optically clear bottom, Cellcarrier plate, PerkinElmer). Five hours later purified Am were added.
(§2) One day after macrophage infection, Leish-Box compounds dissolved in DMSO were added for 3 days at 10 or 1 μM final concentration resulting in a 1% DMSO final concentration. Each compound was tested in quadruplicates. Controls included mock (no liquid added), vehicle control (DMSO), positive control (anti-leishmanial amphotericin B, AmB), and cytotoxicity control (cycloheximide, Cyclo).
(§3) The high content assay used to assess the anti-leishmanial activity against intramacrophagic L. donovani amastigotes corresponds to the L. amazonensis HCS protocol up to the drug incubation step. Then, BMDM cultures were fixed with 4% paraformaldehyde solution in PBS for 1 hour at room temperature, washed with PBS, blocked with 50 mM NH4Cl-PBS for 15 min, and saturated for 30 min with saponin-PBS (0.1 mg/ml) containing 5% normal goat serum. All washing steps were performed with saponin-PBS. Cells were incubated for 45 min with saponin-PBS with 0.25% gelatin and an immune serum obtained from a L. donovani infected hamster (dilution 1/1000), washed twice, and further incubated for 45 min with saponin-PBS containing 0.25% gelatin and 2 µg/ml conjugated AlexaFluor 488 goat anti hamster IgG (Jackson ImmunoReasearch). Finally, after additional washing, Hoechst 33342 (5 µg/ml) and HCS CellMask Blue stain (HCS, Invitrogen Molecular Probes, 2 µg/ml) were added for 30 min at room temperature, washed twice with PBS and stored at 4 °C until acquisition. For hit compounds EC50s were calculated using SigmaPlot software (four parameter logistic equation) following application of a range of concentrations (from 10 to 0.16 µM) performed in duplicates.
(§4) Images of macrophage cultures were acquired using the automatic Opera QEHS confocal imaging system (Perkin Elmer Technology). For the L. donovani HCA, a 40x water objective and two lasers (488 nm for immuno-stained parasites; 405 nm for Hoechst-stained parasite and macrophage nuclei, and HCS-stained macrophage cytoplasm) were used for acquiring 285 fields for the entire well or 30 fields per well in routine HCA conditions. For L. amazonensis HCA, a 10x air objective and three lasers (561 nm for mCherry-expressing parasites; 488 nm for LysoTracker-containing PVs; 405 nm for Hoechst-stained macrophage nuclei) were used to acquire images from entire wells (15 fields).
Images were transferred to the Columbus Conductor™ Database (Perkin Elmer Technologies) and analyzed using the integrated Image analysis building blocks. For L. donovani HCA, we developed a new script based on object segmentation subroutines detecting successively the macrophage nucleus, the macrophage cytoplasm, the parasites and their nuclei, with their associated features (number, size and object intensity). All methods used for segmentation are described in the Columbus Manuel. Analysis was simplified by only taking into account the number of macrophages and the number of amastigotes per macrophage, which was the common way to estimate the anti-leishmanial activity in screening campaigns. For the sake of clarity, both toxicity against host cells and activity against the parasites of tested compounds were normalized to DMSO-treated controls and expressed as percent of DMSO controls. The viability index is calculated by establishing a ratio of macrophage numbers between compound- and DMSO-treated cells, while the anti-leishmanial activity is represented by the number of amastigotes per macrophage. Compounds causing a 50% or higher reduction of macrophage density were considered toxic. […] For the L. amazonensis HCA, we applied the method we described previously. […]

[2] = system: BMDM (bone marrow derived macrophages); experiment: Host cell toxicity (macrophage number) in the L. donovani high content assay; assay type: cell-based, mouse; conditions: for EC50: Mus musculus, BMDM, 72 h, toxicity against macrophages, 3 days, concentrations from 10 to 0.16 µM
Method: Primary mouse macrophages were prepared as described. Briefly, bone marrow cells were recovered from BALB/c mice and were resuspended in complete DMEM medium (PAN Biotech) supplemented with 75 ng/ml of recombinant mouse CSF-1 (ImmunoTools). Cells were distributed in hydrophobic Petri dishes (Greiner 664161, 1,5 × 10^7 in 11 ml) and incubated at 37 °C in a 7.5% CO2 air atmosphere for 6 days (with mCSF-1 supplemented medium added at day 3).
as §1, §2, §3
Images were transferred to the Columbus Conductor™ Database (Perkin Elmer Technologies) and analyzed using the integrated Image analysis building blocks. For L. donovani HCA, we developed a new script based on object segmentation subroutines detecting successively the macrophage nucleus, the macrophage cytoplasm, the parasites and their nuclei, with their associated features (number, size and object intensity). All methods used for segmentation are described in the Columbus Manuel. Analysis was simplified by only taking into account the number of macrophages and the number of amastigotes per macrophage, which was the common way to estimate the anti-leishmanial activity in screening campaigns. For the sake of clarity, both toxicity against host cells and activity against the parasites of tested compounds were normalized to DMSO-treated controls and expressed as percent of DMSO controls. The viability index is calculated by establishing a ratio of macrophage numbers between compound- and DMSO-treated cells, while the anti-leishmanial activity is represented by the number of amastigotes per macrophage. Compounds causing a 50% or higher reduction of macrophage density were considered toxic. […] For the L. amazonensis HCA, we applied the method we described previously. Quantitative values obtained for host cell and parasite numbers were exported to Excel and SigmaPlot for further analysis and graphical representations.

[3] = system: intracellular L. amazonensis amastigotes (strain LV79); experiment: High content assay on intramacrophagic L. amazonensis amastigotes in primary mouse macrophages; assay type: cell-based, Leishmania amazonensis; conditions: hit compounds of Figure 6
Method: as §1, §2
The high content assay used to assess the anti-leishmanial activity against intramacrophagic amastigotes of L. amazonensis has been described elsewhere. Briefly, after 3 days of co-incubation with compounds, BMDM nuclei and parasitophorous vacuoles (PVs) were stained with Hoechst 33342 (Invitrogen Molecular Probes, 12 µM) and LysoTracker Green (Life Technologies, DND-26, 1 µM), respectively. Acquisition of images was performed on live cell cultures.
as §4

[4] = system: L. donovani promastigotes (Ld1S); experiment: Resazurin reduction viability assay on cultured L. donovani promastigotes; assay type: cell-based; conditions: Leishmania donovani, read-out: EC50 against L. donovani promastigotes
Method: Figure 4 Leish-Box screening results for cultured L. donovani promastigotes. A resazurin-based viability assay was used to assess anti-leishmanial activity of Leish-Box compounds against Ld1S promastigotes. Two days after compound addition to parasite cultures at logarithmic growth phase, resazurin was added for an additional 24 hours before reading the level of resofurin fluorescence using an Infinite™ M200 plate reader (Tecan™). […] The outer and inner circles represent respectively 80% and 50% threshold activity values.
Anti-leishmanial activity of compounds was evaluated using an adapted resazurin reduction assay[53] with cell-cycling promastigotes from logarithmic growth phase. Compounds were tested in quadruplicates at 20, 4 and 0.8 μM at 26 °C in 384-well plates. DMSO vehicle and AmB (1 μM) were used as controls. Two days later, resazurin was added (10 μL per well at 25 μg/mL) and fluorescence intensity was measured 24 h later using a Tecan Safire 2 reader (excitation 558 ± 4.5 nm; emission 585 ± 10 nm). Following background subtraction (complete parasite culture medium with resazurin in absence of parasites), data were expressed as percentages of growth compared to DMSO-treated controls (POC).

## C[C@@H]1[C@H](O)[C@@H](C)/C=C/C=C/C=C/C=C/C=C/C=C/C=C/[C@H](O[C@@H]2O[C@H](C)[C@@H](O)[C@H](N)[C@@H]2O)C[C@@H]2O[C@](O)(C[C@@H](O)C[C@@H](O)[C@H](O)CC[C@@H](O)C[C@@H](O)CC(=O)O[C@H]1C)C[C@H](O)[C@H]2C(=O)O [AmB, amphotericin B, reference compound]
[1]; positive control, 3 days
  amastigote survival compared to DMSO control: 0.8%
[2]; BMDMs recovered after three days of treatment, normalized to mock
  toxicity toward the host cell: some toxicity

## COc1ccc(NS(=O)(=O)c2cc(NC(=O)c3ccc([N+](=O)[O-])s3)ccc2OC)cc1 [TCMDC-143163]
[1]
  SI (selectivity index): > 10
  EC50: 790 nM
[3]
  activity on L. amazonensis intramacrophagic amastigotes: active
[2]
  EC50: > 10000 nM

## O=C(Nc1ccc(S(=O)(=O)N2CCCC2)cc1)c1ccc([N+](=O)[O-])s1 [TCMDC-143169]
[1]
  SI (selectivity index): > 1,5
  EC50: 6880 nM
[3]
  activity on L. amazonensis intramacrophagic amastigotes: active
[2]
  EC50: > 10000 nM

## COc1ccc(Oc2ccc(C(C)N(C)c3ncc4c(N)nc(N)nc4n3)cc2)cc1 (stereo not shown) [TCMDC-143295]
[4]
  EC50: 80 nM
[1]
  SI (selectivity index): > 10
  EC50: 480 nM
[3]
  activity on L. amazonensis intramacrophagic amastigotes: active
[2]
  EC50: > 10000 nM

## O=C(Nc1cccc(S(=O)(=O)Nc2ccc(Br)cc2)c1)c1ccc([N+](=O)[O-])s1 [TCMDC-143563]
[1]
  SI (selectivity index): > 10
  EC50: 590 nM
[3]
  activity on L. amazonensis intramacrophagic amastigotes: active
[2]
  EC50: 6250 nM

## Cc1ccc(NC(=O)c2ccc([N+](=O)[O-])s2)cc1S(=O)(=O)N1CCOCC1 [TCMDC-143577]
[1]
  EC50: 1250 nM
[3]
  activity on L. amazonensis intramacrophagic amastigotes: active
[2]
  EC50: 5090 nM
